According to patent publication US20040072824A1, “Methods and compositions for the treatment of cancer” (priority 2001, published 2004):

Test system: Poly ADP-Ribose Polymerase (PARP)
Test: PARP cleavage in treated U937 cells (western blot)
Format: cell-based
Details: 24 hours
Protocol: U937 cells were treated with various concentrations of hydroxyzine and promethazine for 24 hours. The proteins were isolated from these cells and loaded onto a gel for a western blot analysis. A specific anti-PARP antibody was used to visualize the location of PARP.

CN[C@@H]1C[C@H]2O[C@@](C)([C@@H]1OC)n1c3ccccc3c3c4c(c5c6ccccc6n2c5c31)C(=O)NC4 [staurosporine]
PARP cleavage (induction of apoptosis): cleave PARP
